Test results from paper PMC5513444, “The synthesis and evaluation of triazolopyrimidines as anti-tubercular agents” (Bioorganic & Medicinal Chemistry, 2017).
Converted amounts (≈) assume the structure as drawn.

Assays:
M. tuberculosis H37Rv = assay: MIC90 against M. tuberculosis in liquid medium; format: cell-based, Mycobacterium tuberculosis; conditions: Mycobacterium tuberculosis, H37RV, 120 h; liquid medium 7H9-Tw-OADC, aerobic, 5 days; average ± SD of two independent experiments; read-out: MIC (MIC90, minimum concentration required to inhibit growth of M. tuberculosis by 90%)
HepG2 cells = assay: Cytotoxicity against HepG2 cell line (CellTiter-Glo); format: cell-based; conditions: for IC50: Homo sapiens, 48 h, HepG2, 2 days incubation, read-out: IC50 (concentration required to reduce the viability of HepG2 cells by 50%); for Selectivity index (SI) = IC50/MIC90: HepG2 IC50 / M. tuberculosis MIC90

Compound	melting point [°C]	MIC90 (M. tuberculosis H37Rv) [µM]	IC50 (HepG2 cells) [µM]	Selectivity index (SI) = IC50/MIC90 (HepG2 cells)
COc1ccc(CCNc2cc(-c3ccc(C(F)(F)F)cc3)nc3ncnn23)cc1 [Compound 15, N-(4-Methoxyphenethyl)-5-(4-(trifluoromethyl)phenyl)-[1,2,4]triazolo[1,5-a]pyrimidin-7-amine]	191 to 193	> 20	> 100	–
COc1ccc(CCNc2cc(-c3cccnc3)nc3ncnn23)cc1 [Compound 17, N-(4-Methoxyphenethyl)-5-(pyridin-3-yl)-[1,2,4]triazolo[1,5-a]pyrimidin-7-amine]	152 to 153	> 20	> 100	–
COc1ccc(CCNc2cc(-c3ccncc3)nc3ncnn23)cc1 [Compound 18, N-(4-Methoxyphenethyl)-5-(pyridin-4-yl)-[1,2,4]triazolo[1,5-a]pyrimidin-7-amine]	217 to 219	> 20	69	–
COc1ccc(CCNc2cc(Cc3ccccc3)nc3ncnn23)cc1 [Compound 19, 5-Benzyl-N-(4-methoxyphenethyl)-[1,2,4]triazolo[1,5-a]pyrimidin-7-amine]	119 to 121	> 20	57	–
COc1ccc(CCNc2cc(C)nc3ncnn23)cc1 [Compound 20, N-(4-Methoxyphenethyl)-5-methyl-[1,2,4]triazolo[1,5-a]pyrimidin-7-amine]	129 to 130	> 20	> 100	–
CCc1cc(NCCc2ccc(OC)cc2)n2ncnc2n1 [Compound 21, 5-ethyl-N-(4-methoxyphenethyl)-[1,2,4]triazolo[1,5-a]pyrimidin-7-amine]	70 to 72	> 20	> 100	–
COc1ccc(CCNc2cc(C3CCC3)nc3ncnn23)cc1 [Compound 23, 5-Cyclobutyl-N-(4-methoxyphenethyl)-[1,2,4]triazolo[1,5-a]pyrimidin-7-amine]	99 to 100	2.9 ± 0.71 (≈ 0.938 µg/mL)	> 100	>34
COc1ccc(CCNc2cc(C3CCCC3)nc3ncnn23)cc1 [Compound 24, 5-Cyclopentyl-N-(4-methoxyphenethyl)-[1,2,4]triazolo[1,5-a]pyrimidin-7-amine]	99 to 100	5.5 ± 0.07 (≈ 1.86 µg/mL)	95	17
COc1ccc(CCNc2cc(C3CCCCC3)nc3ncnn23)cc1 [Compound 25, 5-Cyclohexyl-N-(4-methoxyphenethyl)-[1,2,4]triazolo[1,5-a]pyrimidin-7-amine]	193 to 194	> 20	47	–
c1ccc(-c2ccn3ncnc3n2)cc1 [Compound 27, 5-Phenyl-[1,2,4]triazolo[1,5-a]pyrimidine]	179 to 181	> 20	> 20	–
Nc1cc(-c2ccccc2)nc2ncnn12 [Compound 28, 5-Phenyl-[1,2,4]triazolo[1,5-a]pyrimidin-7-amine]	302 to 304	> 20	> 20	–
CNc1cc(-c2ccccc2)nc2ncnn12 [Compound 29, N-Methyl-5-phenyl-[1,2,4]triazolo[1,5-a]pyrimidin-7-amine]	200 to 202	> 20	> 20	–
CCNc1cc(-c2ccccc2)nc2ncnn12 [Compound 30, N-Ethyl-5-phenyl-[1,2,4]triazolo[1,5-a]pyrimidin-7-amine]	170 to 172	> 20	37	–
CCCNc1cc(-c2ccccc2)nc2ncnn12 [Compound 31, 5-Phenyl-N-propyl-[1,2,4]triazolo[1,5-a]pyrimidin-7-amine]	139 to 140	> 20	94	–
CCCCNc1cc(-c2ccccc2)nc2ncnn12 [Compound 32, N-Butyl-5-phenyl-[1,2,4]triazolo[1,5-a]pyrimidin-7-amine]	125 to 126	> 20	98	–
COCCNc1cc(-c2ccccc2)nc2ncnn12 [Compound 33, N-(2-Methoxyethyl)-5-phenyl-[1,2,4]triazolo[1,5-a]pyrimidin-7-amine]	116 to 118	> 20	> 100	–
c1ccc(-c2cc(NC3CC3)n3ncnc3n2)cc1 [Compound 34, N-Cyclopropyl-5-phenyl-[1,2,4]triazolo[1,5-a]pyrimidin-7-amine]	193 to 195	> 20	> 100	–
c1ccc(-c2cc(NC3CCC3)n3ncnc3n2)cc1 [Compound 35, N-Cyclobutyl-5-phenyl-[1,2,4]triazolo[1,5-a]pyrimidin-7-amine]	193 to 194	> 20	57	–
c1ccc(-c2cc(NCCC3CCCCC3)n3ncnc3n2)cc1 [Compound 36, N-(2-Cyclohexylethyl)-5-phenyl-[1,2,4]triazolo[1,5-a]pyrimidin-7-amine]	168 to 169	17 ± 2.1 (≈ 5.46 µg/mL)	> 100	>6
COc1ccc(Nc2cc(-c3ccccc3)nc3ncnn23)cc1 [Compound 37, N-(4-Methoxyphenyl)-5-phenyl-[1,2,4]triazolo[1,5-a]pyrimidin-7-amine]	200 to 202	> 20	49	–
COc1ccc(CNc2cc(-c3ccccc3)nc3ncnn23)cc1 [Compound 38, N-(4-Methoxybenzyl)-5-phenyl-[1,2,4]triazolo[1,5-a]pyrimidin-7-amine]	162 to 163	> 20	43	–
c1ccc(CCNc2cc(-c3ccccc3)nc3ncnn23)cc1 [Compound 39, N-Phenethyl-5-phenyl-[1,2,4]triazolo[1,5-a]pyrimidin-7-amine]	164 to 165	7.7 ± 0.7 (≈ 2.43 µg/mL)	27	3.5
c1ccc(CCCNc2cc(-c3ccccc3)nc3ncnn23)cc1 [Compound 40, 5-Phenyl-N-(3-phenylpropyl)-[1,2,4]triazolo[1,5-a]pyrimidin-7-amine]	143 to 145	> 20	8.7	–
c1ccc(-c2cc(NCCc3ccccn3)n3ncnc3n2)cc1 [Compound 41, 5-Phenyl-N-(2-(pyridin-2-yl)ethyl)-[1,2,4]triazolo[1,5-a]pyrimidin-7-amine]	111 to 114	> 20	> 100	–
c1ccc(-c2cc(NCCc3cccnc3)n3ncnc3n2)cc1 [Compound 42, 5-Phenyl-N-(2-(pyridin-3-yl)ethyl)-[1,2,4]triazolo[1,5-a]pyrimidin-7-amine]	169 to 171	> 20	> 100	–
c1ccc(-c2cc(NCCc3ccncc3)n3ncnc3n2)cc1 [Compound 43, 5-Phenyl-N-(2-(pyridin-4-yl)ethyl)-[1,2,4]triazolo[1,5-a]pyrimidin-7-amine]	231 to 233	> 20	> 100	–
CCc1ccc(CCNc2cc(-c3ccccc3)nc3ncnn23)cc1 [Compound 45, N-(4-Ethylphenethyl)-5-phenyl-[1,2,4]triazolo[1,5-a]pyrimidin-7-amine]	152 to 154	0.74 ± 0.1 (≈ 0.254 µg/mL)	> 100	>138
